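Assay format: 96-well plates, 48-hour exposure. GI50 marks 50% less growth.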 Calls of active or inactive are those of the source. No stated cut-off is given here; in the data, active = GI50 up to about 1.1 µM and inactive = higher.
Assays:
Assay in all cases: NCI-60 cell line screen, 48 h
KM-20L2 = tested on: KM-20L2
XF498 = tested on: XF498
RXF 631 = tested on: RXF 631
SNB-78 = tested on: SNB-78
DMS-273 = tested on: DMS-273
M19-MEL = tested on: M19-MEL
HOP-18 = tested on: HOP-18

## O=C1c2ccccc2-c2cccc3ccc(Cc4ccc5ccccc5c4)c1c23
KM-20L2
  GI50: > 100 µM (inactive)
XF498
  GI50: 30.3 µM (inactive)
RXF 631
  GI50: > 100 µM (inactive)
SNB-78
  GI50: > 100 µM (inactive)
DMS-273
  GI50: 88.3 µM (inactive)
M19-MEL
  GI50: > 100 µM (inactive)

## CO/C(=N\N=C\c1ccc(Cl)cc1)c1ccncc1
KM-20L2
  GI50: > 100 µM (inactive)
XF498
  GI50: > 100 µM (inactive)
SNB-78
  GI50: > 100 µM (inactive)
DMS-273
  GI50: > 100 µM (inactive)

## CCn1cnnc1-c1nsc2ccccc12
KM-20L2
  GI50: > 100 µM (inactive)
HOP-18
  GI50: > 100 µM (inactive)
SNB-78
  GI50: > 100 µM (inactive)
DMS-273
  GI50: > 100 µM (inactive)
M19-MEL
  GI50: > 100 µM (inactive)

## S=P1(Oc2ccccc2)NNP2(=NP(N3CC3)(N3CC3)=NP(N3CC3)(N3CC3)=N2)NN1 (configuration not stated)
XF498
  GI50: > 100 µM (inactive)
HOP-18
  GI50: > 100 µM (inactive)
RXF 631
  GI50: > 100 µM (inactive)
DMS-273
  GI50: 76.4 µM (inactive)
M19-MEL
  GI50: > 100 µM (inactive)

## C#CCOCn1cnc2ncnc(Cl)c21
KM-20L2
  GI50: > 100 µM (inactive)
XF498
  GI50: > 100 µM (inactive)
HOP-18
  GI50: > 100 µM (inactive)
RXF 631
  GI50: > 100 µM (inactive)
SNB-78
  GI50: > 100 µM (inactive)
DMS-273
  GI50: > 100 µM (inactive)
M19-MEL
  GI50: > 100 µM (inactive)

## COC(=O)CCC(=O)CC(=O)C1=NS(=O)(=O)c2nc(S(N)(=O)=O)c(Cl)cc2N1
KM-20L2
  GI50: 72.9 µM (inactive)
XF498
  GI50: > 100 µM (inactive)
HOP-18
  GI50: > 100 µM (inactive)
RXF 631
  GI50: > 100 µM (inactive)
DMS-273
  GI50: 72.3 µM (inactive)
M19-MEL
  GI50: > 100 µM (inactive)

## CC1CCN(c2cc(-c3cc4ccccc4o3)oc(=O)c2C#N)CC1
KM-20L2
  GI50: > 100 µM (inactive)
XF498
  GI50: > 100 µM (inactive)
HOP-18
  GI50: > 100 µM (inactive)
SNB-78
  GI50: > 10 µM (inactive)
DMS-273
  GI50: > 100 µM (inactive)

## CC(C)COC(=O)N1N=NC2C3CC(=O)C(O3)C21 (configuration not stated)
KM-20L2
  GI50: > 100 µM (inactive)
HOP-18
  GI50: > 100 µM (inactive)
RXF 631
  GI50: > 100 µM (inactive)
SNB-78
  GI50: > 100 µM (inactive)
DMS-273
  GI50: > 100 µM (inactive)
M19-MEL
  GI50: > 100 µM (inactive)

## CN(C)c1ccc(C=C2C(=O)OC(C)(C)OC2=O)cc1Br
KM-20L2
  GI50: > 100 µM (inactive)
XF498
  GI50: > 100 µM (inactive)
HOP-18
  GI50: > 100 µM (inactive)
RXF 631
  GI50: > 100 µM (inactive)
SNB-78
  GI50: > 10 µM (inactive)
DMS-273
  GI50: > 100 µM (inactive)
M19-MEL
  GI50: > 100 µM (inactive)

## N/C(=N/O)N/N=C\c1cc(Cl)cc(Cl)c1O
KM-20L2
  GI50: 5.57 µM (inactive)
XF498
  GI50: 0.708 µM (active)
HOP-18
  GI50: 10.7 µM (inactive)
SNB-78
  GI50: 21.1 µM (inactive)
DMS-273
  GI50: 0.347 µM (active)
M19-MEL
  GI50: 4.19 µM (inactive)

## O=[N+]([O-])c1cc(C(F)(F)F)cc2c1SC1=Nc3ccccc3CN12
KM-20L2
  GI50: > 100 µM (inactive)
XF498
  GI50: > 100 µM (inactive)
HOP-18
  GI50: > 100 µM (inactive)
SNB-78
  GI50: > 100 µM (inactive)
DMS-273
  GI50: > 100 µM (inactive)
M19-MEL
  GI50: > 100 µM (inactive)

## O=c1n(Cc2ccccc2)c2ccccc2n1CC1CS1 (configuration not stated)
KM-20L2
  GI50: > 100 µM (inactive)
XF498
  GI50: > 100 µM (inactive)
DMS-273
  GI50: > 100 µM (inactive)
M19-MEL
  GI50: > 100 µM (inactive)

## CC(=O)Nc1ccc(C(=O)N2N=C(C)/C(=C/c3cccc(O)c3)C2=O)cc1
XF498
  GI50: > 100 µM (inactive)
DMS-273
  GI50: > 100 µM (inactive)
M19-MEL
  GI50: > 100 µM (inactive)

## CC(C)(C1=NC(C(C)(C)C)CO1)C1=N[C@@H](C(C)(C)C)CO1 (some centres not stated)
KM-20L2
  GI50: > 100 µM (inactive)
XF498
  GI50: > 100 µM (inactive)
HOP-18
  GI50: > 100 µM (inactive)
DMS-273
  GI50: > 100 µM (inactive)
M19-MEL
  GI50: > 100 µM (inactive)

## CC(C)(C)c1cc(Cc2ccc(S(C)(=O)=O)cc2)c(O)c(C(C)(C)C)c1
KM-20L2
  GI50: 15.7 µM (inactive)
XF498
  GI50: 15.2 µM (inactive)
HOP-18
  GI50: 22.7 µM (inactive)
SNB-78
  GI50: 16.3 µM (inactive)
DMS-273
  GI50: 14.3 µM (inactive)
M19-MEL
  GI50: 17.1 µM (inactive)

## COCOc1ccc(OC)cc1
KM-20L2
  GI50: > 100 µM (inactive)
XF498
  GI50: > 100 µM (inactive)
HOP-18
  GI50: > 100 µM (inactive)
SNB-78
  GI50: > 100 µM (inactive)
DMS-273
  GI50: > 100 µM (inactive)
M19-MEL
  GI50: > 100 µM (inactive)

## O=C1NCCCC12CCCNC2=O
KM-20L2
  GI50: > 100 µM (inactive)
XF498
  GI50: > 100 µM (inactive)
DMS-273
  GI50: > 100 µM (inactive)
M19-MEL
  GI50: > 100 µM (inactive)

## CCC1N2CCCCC2[C@@H]2c3[nH]c4ccccc4c3CCN12 (some centres not stated)
KM-20L2
  GI50: > 100 µM (inactive)
XF498
  GI50: > 100 µM (inactive)
HOP-18
  GI50: > 100 µM (inactive)
RXF 631
  GI50: > 100 µM (inactive)
SNB-78
  GI50: > 100 µM (inactive)
DMS-273
  GI50: > 100 µM (inactive)
M19-MEL
  GI50: > 100 µM (inactive)

## N/C(=N\O)N/N=C/c1ccc2c(c1)OCCO2
KM-20L2
  GI50: 4.13 µM (inactive)
XF498
  GI50: 8.79 µM (inactive)
HOP-18
  GI50: 24.2 µM (inactive)
SNB-78
  GI50: 57.7 µM (inactive)
DMS-273
  GI50: 16.6 µM (inactive)
M19-MEL
  GI50: > 33 µM (inactive)

## CC(=O)OCc1nnn2c1C(OC(C)=O)CC2 (configuration not stated)
KM-20L2
  GI50: > 100 µM (inactive)
XF498
  GI50: > 100 µM (inactive)
RXF 631
  GI50: > 100 µM (inactive)
SNB-78
  GI50: > 100 µM (inactive)
DMS-273
  GI50: > 100 µM (inactive)
M19-MEL
  GI50: > 100 µM (inactive)

## CCc1cccc(CC)c1NC1=CC(=O)C(=O)c2ccccc21
KM-20L2
  GI50: 19.8 µM (inactive)
HOP-18
  GI50: 21.2 µM (inactive)
RXF 631
  GI50: 13.8 µM (inactive)
SNB-78
  GI50: 26.3 µM (inactive)
DMS-273
  GI50: 19.2 µM (inactive)
M19-MEL
  GI50: 4.97 µM (inactive)

## Cc1cccc(NC(=O)C(=O)C(C(=O)c2ccccc2F)C2OC(=O)c3ccccc32)c1Cl (configuration not stated)
KM-20L2
  GI50: 29.6 µM (inactive)
XF498
  GI50: 19.7 µM (inactive)
SNB-78
  GI50: 32.6 µM (inactive)
DMS-273
  GI50: 24.7 µM (inactive)
M19-MEL
  GI50: 22.4 µM (inactive)

## CC1(c2ccc(F)cc2)C(C#N)C(=O)NC(=O)C1C#N (configuration not stated)
KM-20L2
  GI50: > 100 µM (inactive)
XF498
  GI50: > 100 µM (inactive)
RXF 631
  GI50: > 100 µM (inactive)
DMS-273
  GI50: > 100 µM (inactive)
M19-MEL
  GI50: > 100 µM (inactive)

## O/N=C/c1ncccc1C1OCCO1
KM-20L2
  GI50: > 100 µM (inactive)
XF498
  GI50: > 100 µM (inactive)
HOP-18
  GI50: > 100 µM (inactive)
SNB-78
  GI50: > 100 µM (inactive)
DMS-273
  GI50: > 100 µM (inactive)
M19-MEL
  GI50: > 100 µM (inactive)

## CC/C=C\C/C=C\C/C=C\CCCCCCCC(=O)OCC
KM-20L2
  GI50: > 100 µM (inactive)
XF498
  GI50: 30.9 µM (inactive)
HOP-18
  GI50: > 100 µM (inactive)
M19-MEL
  GI50: > 100 µM (inactive)

## CCOC(=O)C(C(=O)OCC)c1ccc([N+](=O)[O-])o1
KM-20L2
  GI50: 19.1 µM (inactive)
XF498
  GI50: 17.1 µM (inactive)
HOP-18
  GI50: 20 µM (inactive)
SNB-78
  GI50: 14 µM (inactive)
DMS-273
  GI50: 18 µM (inactive)
M19-MEL
  GI50: 17.5 µM (inactive)

Reference: ChEMBL document CHEMBL1201862, “PubChem BioAssay data set” (2004)
